Columns and labels:
Type in all cases: physicochemical
[1] = Color of evaporated film on glass substrate left to stand in the air; conditions: in the air at room temperature, approximately two hours
[2] = Solubility: amount of chlorobenzene required to dissolve 10 mg of compound; conditions: 10 mg compound
Description: The amount of chlorobenzene required to dissolve 10 mg of the exemplary compound C-1 was determined. As a result, the amount of chlorobenzene required to dissolve 10 mg of the exemplary compound C-1 was 1 ml or less.

[3] = Ionization potential of evaporated thin film, photoelectron spectrometer AC-3
Description: The ionization potential of the evaporated thin film used in the measurement of the energy gap described above was measured with a photoelectron spectrometer AC-3 (manufactured by Riken Keiki Co., Ltd.). The ionization potential of the exemplary compound C-1 was 6.01 eV.

Color of film 2 h after film formation [1]	Amount of chlorobenzene required to dissolve 10 mg of compound [2]	Ionization potential [3] [eV]	Compound
pale yellowish brown	50 or more ml	5.83	c1ccc2c(c1)c1cc(-c3cc(-c4cc5c6ccccc6n6c7ccccc7c(c4)c56)cc(-c4cc5c6ccccc6n6c7ccccc7c(c4)c56)c3)cc3c4ccccc4n2c13 [FH-01]
pale yellowish brown	10 mL	5.72	c1ccc2c(c1)c1cc(-c3ccc(-c4cc5c6ccccc6n6c7ccccc7c(c4)c56)cc3)cc3c4ccccc4n2c13 [FH-02]
